Test results published in patent US11369665B2, “Anti-inflammatory peptides and composition comprising the same” (GemVax & KAEL Co., Ltd., priority 2012, dated 2022).

Tests used:
nitric oxide (NO) = test: NO level analysis (Griess reagent) in LPS-stimulated Raw 264.7 cells; assay type: cell-based
Procedure: (§1) Raw 264.7 macrophage cell (KCBL, 40071) from Korea Cell Bank was maintained in Dulbecco's modified Eagle's medium (DMEM; PAA, Austria) containing 10% fetal bovine serum (FBS; GIBCO®), 100 unit/mL of streptomycin, and penicillin (Gibco Laboratories) at 37° C. with 5% CO2. Raw 264.7 cells were seeded into a 96-well plate at a density of 1×10^6 cells/mL and incubated overnight.
[…] After 30 min incubation of cells with the peptide 50 μL of LPS (to a final concentration of 1 μg/mL) was added, and cells were incubated for additional 24 hr. The experimental sample with the induction of inflammatory response was treated with 1 μg/mL mL lipopolysaccharide (LPS; SIGMA-ALDRICH®, USA) and control sample was treated with phosphate buffered saline (PBS; pH 7.2). The supernatant samples from each condition was collected in eppendorf tubes and subjected to further analysis.
The level of nitric oxide (NO) was measured in Raw 264.7 cell (1×10^6 cell/ml) using Griess reagent system (PROMEGA CORPORATION®, USA). Culture medium of 50 μl was added to a 96-well plate and Griess reagent I (NED) solution and Griess reagent II (Sulfanilamide solution) are added in the same amount. After 10 min incubation of cells with the reagents, the optical density at 540 nm was measured within 30 min using a microplate reader (MOLECULAR DEVICES®, USA). The concentration of NO was calculated by using a standard curve (0˜100 μM) of sodium nitrite.

HMGB1, TNF-α and COX = test: Western blot of pro-inflammatory cytokine expression; assay type: cell-based; details: cells treated with both LPS and PEP-1
Procedure: as §1
On the following day, the medium was replaced with fresh medium and 5 μg/mL of peptide (obtained as described in Experiment example 1) was added to the cells. After 30 min incubation of cells with the peptide 50 μL of LPS (to a final concentration of 1 μg/mL) was added, and cells were incubated for additional 24 hr. The experimental sample with the induction of inflammatory response was treated with 1 μg/mL mL lipopolysaccharide (LPS; SIGMA-ALDRICH®, USA) and control sample was treated with phosphate buffered saline (PBS; pH 7.2). The supernatant samples from each condition was collected in eppendorf tubes and subjected to further analysis.
Protein expression level was determined by Western blot analysis. […] The membrane was incubated with ECL (enhanced chemiluminoesence) solution ([…]®), exposed to X-ray, and the level of protein expression was analyzed according to the exposure level shown on the X-ray film. […]

neural stem cells [1] = test: Co-treatment amyloid-β and PEP-1: viability (MMT and CCK-8 assay); assay type: cell-based, rat; details: 20 μM amyloid-β protein, co-treated 48 hours
Procedure: (§2) To determine whether PEP 1 has the effect of suppressing the neurotoxicity caused by amyloid-β protein, 20 μM amyloid-β protein and various concentrations of PEP-1 were co-treated for 48 hours. The cell viability and apoptosis were measured using MMT assay, CCK-8 assay, LDH assay and TUNEL assay, and neural stem cell proliferation by BrdU assay.
(§3) (Refer to FIG. 8). LDH assay was carried out for assessment of the degree of cell death as another method, and we confirmed that the increase in cell death by amyloid-β decreased by PEP-1, and efficacy was seen starting at 1 μM concentration (Refer to FIG. 9).

neural stem cells [2] = test: Co-treatment amyloid-β and PEP-1: cell death (LDH assay); assay type: cell-based, rat; details: 20 μM amyloid-β protein, co-treated 48 hours
Procedure: as §2, §3

neural stem cells [3] = test: Co-treatment amyloid-β and PEP-1: apoptosis (TUNEL assay); assay type: cell-based, rat; details: 20 μM amyloid-β protein, 1 to 100 μM of PEP 1
Procedure: as §2
To confirm the degree of neuronal stem cells damage, TUNEL assay was performed. […] (Refer to FIG. 12)

GADD 153 = test: 2D-electrophoresis protein expression in neural stem cells; assay type: cell-based, rat; details: 20 ug β-amyloid + PEP 1 treated group, versus negative control 1.0
Procedure: (§4) Protein expression level of PEP-1 treated group and untreated group was analyzed by 2D-electrophoresis technique and antibody microarray technique. Prepared 200 μg by extracting proteome from the neural stem cells cultured in Experiment 3-1 of Example 3. In addition, the group in which PEP-1 was not treated was used as the comparison group in the same condition.
(§5) 2D-electrophoresis was performed using 12% acrylamide gels. First gel electrophoresis was performed at PI 4˜10 N, using a gel size of 8.5×7 cm. After electrophoresis, it was dyed with Colloidal Coomassie Blue, and then compared expression by using PDQuest software to analyze each spot.
(§6) Difference in the expression levels of more than 1.5 times was identified using MALDI-TOF MS (Matrix Desorption/Ionization Time of Flight Mass Spectromestry). Among these, proteins correlated with inflammation-related signaling, such as i-NOS and HMGB-1 were identified (Refer to Table 6). The changes in protein expression levels either increased or decreased by 1.5 times by amyloid-β protein, but it was confirmed that expression level was regulated close to that of negative control when PEP-1 was added (Refer to FIGS. 14A-14B).
(§7) The Table 6 below is an analysis of expression levels of proteins associated with inflammation by 2D electrophoresis technique. The control group represents protein expression level of cells that were not treated with neither amyloid-β protein nor PEP-1.

HMGB1 = test: as above; assay type: cell-based, rat; details: 20 ug β-amyloid + PEP 1 treated group, versus negative control 1.0
Procedure: as §4, §5, §6, §7

HSP 70 = test: as above; assay type: cell-based, rat; details: 20 ug β-amyloid + PEP 1 treated group, versus negative control 1.0
Procedure: as §4, §5, §6, §7

HSP 90 = test: as above; assay type: cell-based, rat; details: 20 ug β-amyloid + PEP 1 treated group, versus negative control 1.0
Procedure: as §4, §5, §6, §7

MAP Kinase = test: as above; assay type: cell-based, rat; details: 20 ug β-amyloid + PEP 1 treated group, versus negative control 1.0
Procedure: as §4, §5, §6, §7

Pyk2 = test: as above; assay type: cell-based, rat; details: 20 ug β-amyloid + PEP 1 treated group, versus negative control 1.0
Procedure: as §4, §5, §6, §7

e-NOS = test: as above; assay type: cell-based, rat; details: 20 ug β-amyloid + PEP 1 treated group, versus negative control 1.0
Procedure: as §4, §5, §6, §7

i-NOS = test: as above; assay type: cell-based, rat; details: 20 ug β-amyloid + PEP 1 treated group, versus negative control 1.0
Procedure: as §4, §5, §6, §7

[4] = LPS 1 μg/mL, PEP 1 0.5 μg/mL, 24 hr

In the case of EARPALLTSRLRFIPK [PEP-1], the “Decreased NO Expression Level (%)” value (nitric oxide (NO); [4]) is reported as 65%, the “NO Expression Level of control (%)” value (nitric oxide (NO); [4]) is reported as 35% and the “NO level reduced to % of the control” value (nitric oxide (NO); co-treatment with LPS) is reported as 65%. The “decrease of pro-inflammatory cytokine levels” value (HMGB1, TNF-α and COX) was “more than 70%”, the “concentration at which protection from amyloid-β neurotoxicity began” value (neural stem cells [1]) was 10 µM and the “concentration of most effective protection from amyloid-β neurotoxicity” value (neural stem cells [1]) was 100 µM. The “concentration at which efficacy starts (LDH)” value (neural stem cells [2]) was 1 µM, the “increase in cell death by amyloid-β (LDH)” value (neural stem cells [2]) was “decreased” and the “neuronal stem cell death (TUNEL)” value (neural stem cells [3]) was “decreased”. The “GADD 153 expression (fold)” value (GADD 153) was 1.2 fold, the “HMGB1 expression (fold)” value (HMGB1) was 2.8 fold and the “HSP 70 expression (fold)” value (HSP 70) was 1.2 fold. For the same sequence, the “HSP 90 expression (fold)” value (HSP 90) was 1.0 fold, the “MAP Kinase expression (fold)” value (MAP Kinase) was 1.0 fold and the “Pyk2 expression (fold)” value (Pyk2) was 1.2 fold. The “e-NOS expression (fold)” value (e-NOS) was −1.1 fold and the “i-NOS expression (fold)” value (i-NOS) was −1.1 fold.
